# Values of other authors, collected in patent US20220175799A1, “COMPOSITIONS HAVING THE ABILITY TO PROMOTE HEALTHY CHOLESTEROL LEVELS” (Brilliant Lab LLC, priority 2020, published 2022).
# Like-named read-outs stand apart in the source and are kept apart here.
# Columns and labels:
# [1] = not given; remark: listed apart in the source
# [2] = not given; remark: listed apart in the source
SMILES,Reduction in LDL-C levels (statin daily oral dose 5 mg) [mg/dL],Reduction in LDL-C levels (statin daily oral dose 10 mg) [mg/dL],Reduction in LDL-C levels (statin daily oral dose 20 mg) [mg/dL],Reduction in LDL-C levels (statin daily oral dose 40 mg) [mg/dL],Reduction in LDL-C levels (statin daily oral dose 80 mg) [mg/dL],% LDL-C Reduction ([1]; statin dose 10 mg) [%],% LDL-C Reduction ([1]; statin dose 20 mg) [%],% LDL-C Reduction ([1]; statin dose 40 mg) [%],% LDL-C Reduction ([1]; statin dose 80 mg) [%],% LDL-C Reduction ([1]; statin dose 1 mg) [%],% LDL-C Reduction ([1]; statin dose 2 mg) [%],% LDL-C Reduction ([1]; statin dose 4 mg) [%],% LDL-C Reduction ([1]; statin dose 5 mg) [%],reduction of LDL-cholesterol in subjects ([2]; 1 g daily) [%],reduction of total cholesterol in subjects ([2]; 1 g daily),reduction of LDL-cholesterol in subjects ([2]; 22 mg daily)
CC(C)c1c(C(=O)Nc2ccccc2)c(-c2ccccc2)c(-c2ccc(F)cc2)n1CC[C@@H](O)C[C@@H](O)CC(=O)O [Atorvastatin],58.3917,69.2193,80.0469,91.2612,102.0888,38,42,52,60,–,–,–,–,–,–,–
CC(C)n1c(/C=C/C(O)CC(O)CC(=O)O)c(-c2ccc(F)cc2)c2ccccc21 (stereo not shown) [Fluvastatin],17.7882,28.6158,39.4434,50.271,61.0986,–,20,24,34,–,–,–,–,–,–,–
CC[C@H](C)C(=O)O[C@H]1C[C@@H](C)C=C2C=C[C@H](C)[C@H](CC[C@@H]3C[C@@H](O)CC(=O)O3)[C@H]21 [Lovastatin],–,39.4434,54.138,68.4459,83.1405,20,26,30,38,–,–,–,–,–,–,–
O=C(O)C[C@H](O)C[C@H](O)/C=C/c1c(C2CC2)nc2ccccc2c1-c1ccc(F)cc1 [Pitavastatin],–,–,–,–,–,–,–,–,–,30,32,42,–,–,–,–
CC(C)c1nc(N(C)S(C)(=O)=O)nc(-c2ccc(F)cc2)c1/C=C/[C@@H](O)C[C@@H](O)CC(=O)O [Rosuvastatin],71.1528,80.4336,89.7144,98.9952,108.276,52,56,63,–,–,–,–,44,–,–,–
COc1ccc2cc3[n+](cc2c1OC)CCc1cc2c(cc1-3)OCO2 [berberine],–,–,–,–,–,–,–,–,–,–,–,–,–,~16.4,about 11.6%,–
CC(C)=CCC/C(C)=C/C=C/C(C)=C/C=C/C(C)=C/C=C/C=C(C)/C=C/C=C(C)/C=C/C=C(\C)CCC=C(C)C [lycopene],–,–,–,–,–,–,–,–,–,–,–,–,–,–,–,about 3.7 mg/dl
